For the test, the target named is T1, carboxypeptidase U (Homo sapiens, UniProt Q96IY4).
T1 sequence (Q96IY4 115-423): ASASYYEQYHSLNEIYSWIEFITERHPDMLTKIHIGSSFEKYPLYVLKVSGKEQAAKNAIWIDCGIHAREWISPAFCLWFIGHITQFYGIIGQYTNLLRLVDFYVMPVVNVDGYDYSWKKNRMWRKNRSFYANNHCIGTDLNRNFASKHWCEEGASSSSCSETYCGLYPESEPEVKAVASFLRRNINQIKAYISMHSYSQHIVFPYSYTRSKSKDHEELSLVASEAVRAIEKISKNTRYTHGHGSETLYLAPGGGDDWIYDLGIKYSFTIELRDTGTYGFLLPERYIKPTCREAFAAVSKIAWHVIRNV
Nature of the test: carboxypeptidase U inhibition assay (Hendriks et al., Clin. Chem. 1985), substrate concentration 4 mM. Type of test: biochemical. Particulars: substrate concentration of 4 mM. The method, then:
The inhibiting effect of the compounds of the present invention was estimated using the assay described in: Dirk Hendriks, Simon Scharpé and Marc van Sande, Clinical Chemistry, 31, 1936-1939 (1985); and Wei Wang, Dirk F. Hendriks, Simon S. Scharpé, The Journal of Biological Chemistry, 269, 15937-15944 (1994), using a substrate concentration of 4 mM.
The activities of certain Examples in the assay described in: Dirk Hendriks, Simon Sharpé and Marc van Sande, Clinical Chemistry, 31, 1936-1939 (1985), using a substrate concentration of 4 mM, are presented in Table I below.

Results on 2 molecules are retold here after US20080039376A1, “Use of Cyclic Anabaenopeptin-type Peptides for the Treatment of a Condition Wherein Inhibition of Carboxypeptidase U is Beneficial, Novel Anabaenopeptin Derivatives and Intermediates Thereof” (A[…], priority 2003, published 2008).

By IC50 is commonly meant the midpoint of a concentration-inhibition curve.

Structures are written as SMILES. *1 amine or outer side, *2 acyl side, *3 side chain or, on linkers, in order; H or OH if unused. Where a SMILES comes first, the peptide text is derived from it. Bridges are numbered along the chain shown (N, C = ends). [ ]: non-standard residue; d: D form. ξ: configuration not given here. X2 = CN([C@@H](Cc1c[nH]c2cc(Cl)c(O)cc12)C(=O)[*:2])[*:1]; X1 = O=C([C@H](Cc1c[nH]c2cc(Cl)c(O)cc12)N[*:1])[*:2]; Ile(3ξ) = CCC(C)[C@H](N)C(=O)O; NMeL = CN[C@@H](CC(C)C)C(=O)O; CO = O=C([*:1])[*:2]

Consider `CC(C)C[C@@H]1NC(=O)[C@H](C)NC(=O)[C@H](NC(=O)N[C@@H](CCCNC(=N)N)C(=O)O)CCCCNC(=O)[C@H](Cc2c[nH]c3cc(Cl)c(O)cc23)NC(=O)[C@H](CC(C)C)N(C)C1=O` [Compound 2] ({Arg-CO}-[dK]AL[NMeL][X1]; lactam 1-C), for which the IC50 was 100 nM.

In turn, `CCC(C)[C@H](NC(=O)N[C@@H]1CCCCNC(=O)[C@H](Cc2ccccc2)NC(=O)[C@H](Cc2c[nH]c3cc(Cl)c(O)cc23)N(C)C(=O)[C@H](CC(C)C)NC(=O)[C@H](C(C)CC)NC1=O)C(=O)O` (some centres unmarked) [Compound 8] ({Ile(3ξ)-CO}-[dK][Ile(3ξ)]L[X2]F; lactam 1-C) showed an IC50 of 2500 nM.
